Like-named read-outs stand apart in the source and are kept apart here.
What was measured:
Aurora C = target: T1, Aurora C (Homo sapiens, UniProt Q9UQB9); test: Biochemical Aurora C kinase assay (LANCE Ultra TR-FRET); conditions: for AurC Selectivity: IC50 AurC/IC50 TTK (biochemical assays); for IC50: full-length Aurora C, 5 μM ATP
T1 construct: full-length Aurora C enzyme (Carna Biosciences, cat. no. 05-103); purchased Carna Biosciences 05-103
T1 sequence (Q9UQB9 1-309): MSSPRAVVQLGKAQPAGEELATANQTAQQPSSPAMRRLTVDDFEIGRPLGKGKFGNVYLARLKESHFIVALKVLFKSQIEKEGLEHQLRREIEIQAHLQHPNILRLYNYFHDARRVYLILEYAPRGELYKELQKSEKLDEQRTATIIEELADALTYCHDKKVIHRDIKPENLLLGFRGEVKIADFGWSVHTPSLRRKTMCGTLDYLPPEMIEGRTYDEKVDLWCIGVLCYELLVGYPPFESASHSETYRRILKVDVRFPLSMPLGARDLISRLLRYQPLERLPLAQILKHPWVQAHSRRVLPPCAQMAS
Method: To determine the inhibitory activity of the compounds on Aurora C, the LANCE® Ultra TR-FRET assay (Perkin Elmer) was used. […] After pre-incubation of 1 hour in the dark at room temperature, ULightTM-labeled PLK([MUT]) substrate peptide (Perkin Elmer, cat. no. TRF-0110) and ATP were added, to start the reaction. […] After 3 hours, the reaction was stopped by the addition of 5 μl 100 mM EDTA. […] Time-resolved fluorescence was measured on an Envision multilabel reader (Perkin Elmer, Waltham, Mass., USA). IC50 were calculated using XLfitTM5 software (ID Business Solutions, Ltd., Surrey, U.K.).

MOLT-4 cancer cell line = test: Cell proliferation assay, MOLT-4 cancer cell line (ATPlite); type: cell-based; conditions: Homo sapiens;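 note: luminescence read-out, percent growth versus compound-free DMSO wells as maximum growth, start-of-incubation signal separating growth from cell death, IC50 from logistic curve fit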
Method: 5 μL of compound solution was added and the plates were incubated for an additional 72 hours after which 25 μL of ATPlite 1Step™ (PerkinElmer, Groningen, The Netherlands) solution was added to each well. Luminescence was recorded on an Envision multimode reader. The cell signal at the start of incubation was recorded separately in order to distinguish between cell population growth and cell death. In addition, maximum growth was determined by incubation of a duplicate without compound in the presence of 0.4% DMSO. Percentage growth was used as the main y-axis signal. IC50s were fitted by non-linear regression using IDBS XLfit™5 using a 4-parameter logistic curve, yielding a maximum signal, minimum signal, hill-parameter and IC50.

Aurora A = target: T2, Aurora A (Homo sapiens, UniProt O14965); test: Biochemical Aurora A kinase assay (LANCE Ultra TR-FRET); conditions: for AurA Selectivity: IC50 AurA/IC50 TTK (biochemical assays); for IC50: full-length Aurora A, 2 μM ATP
T2 construct: full-length Aurora A enzyme (Carna Biosciences, cat. no. 05-101); purchased Carna Biosciences 05-101
T2 sequence (O14965 1-403): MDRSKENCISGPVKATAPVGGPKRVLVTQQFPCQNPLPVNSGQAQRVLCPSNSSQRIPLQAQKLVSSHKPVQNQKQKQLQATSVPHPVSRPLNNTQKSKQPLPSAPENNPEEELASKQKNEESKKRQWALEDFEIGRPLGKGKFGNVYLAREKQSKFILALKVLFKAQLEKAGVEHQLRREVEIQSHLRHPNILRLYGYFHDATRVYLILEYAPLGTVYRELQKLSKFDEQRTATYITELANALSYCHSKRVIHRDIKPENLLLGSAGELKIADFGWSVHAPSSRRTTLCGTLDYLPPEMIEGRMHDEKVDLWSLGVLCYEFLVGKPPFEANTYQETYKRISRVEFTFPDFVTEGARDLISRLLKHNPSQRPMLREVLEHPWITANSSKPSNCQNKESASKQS
Method: To determine the inhibitory activity of the compounds on Aurora A, the LANCE® Ultra TR-FRET assay (Perkin Elmer) was used. […] After 2 hours, the reaction was stopped by the addition of 5 μl 100 mM EDTA. […] Time-resolved fluorescence was measured on an Envision multilabel reader (Perkin Elmer, Waltham, Mass., USA). IC50 were calculated using XLfit™5 software (ID Business Solutions, Ltd., Surrey, U.K.).

[1] = target: Polo-like kinase 1 (PLK1) (Homo sapiens, UniProt P53350); test: Biochemical Polo-like kinase 1 kinase assay (LANCE Ultra TR-FRET); conditions: for PLK1 Selectivity: IC50 PLK1/IC50 TTK (biochemical assays)
Chain of Polo-like kinase 1 (PLK1) (P53350 whole entry): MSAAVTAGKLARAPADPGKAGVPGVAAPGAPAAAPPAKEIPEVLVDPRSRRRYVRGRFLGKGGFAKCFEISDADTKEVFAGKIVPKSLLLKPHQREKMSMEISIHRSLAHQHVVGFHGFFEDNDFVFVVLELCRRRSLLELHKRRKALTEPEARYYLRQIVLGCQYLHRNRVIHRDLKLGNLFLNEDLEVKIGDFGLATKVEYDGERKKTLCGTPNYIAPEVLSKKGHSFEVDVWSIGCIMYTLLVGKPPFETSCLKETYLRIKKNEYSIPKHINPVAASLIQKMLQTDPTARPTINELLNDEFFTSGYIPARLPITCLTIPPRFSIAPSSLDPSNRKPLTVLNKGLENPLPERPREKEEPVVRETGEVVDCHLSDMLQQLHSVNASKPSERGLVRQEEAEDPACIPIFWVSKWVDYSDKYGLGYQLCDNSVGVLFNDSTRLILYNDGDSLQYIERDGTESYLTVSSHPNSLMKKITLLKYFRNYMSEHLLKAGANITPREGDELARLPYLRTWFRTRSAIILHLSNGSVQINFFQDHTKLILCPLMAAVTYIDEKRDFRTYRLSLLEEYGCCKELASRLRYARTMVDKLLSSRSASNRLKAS
Method: To determine the inhibitory activity of the compounds on Polo-like kinase 1 (PLK1), the LANCE® Ultra TR-FRET assay (Perkin Elmer) was used. […] After 4 hours, the reaction was stopped by the addition of 5 μl 100 mM EDTA. […] Time-resolved fluorescence was measured on an Envision multilabel reader (Perkin Elmer, Waltham, Mass. USA). IC50 were calculated using XLfit™5 software (ID Business Solutions, Ltd., Surrey, U.K.).

[2] = tested on: HeLa-Matu cervical tumor cell; conditions: cited from earlier work
human cancer cell lines = conditions: Colombo et al.; read-out: IC50 proliferation of cancer cell lines from different tumor origin; cited from earlier work
A375 = conditions: mouse xenograft model; cited from earlier work
A2780 = conditions: mouse xenograft model; cited from earlier work
[3] = MOLT-4, 72 hours incubation, ATPlite 1Step, read-out: IC50 MOLT-4 cell proliferation
[4] = MOLT-4, read-out: IC50 in the TTK cellular assay
[5] = MOLT-4, worded 'TTK cellular assay', read-out: IC50 in the TTK cellular assay

| SMILES | AurC Selectivity (Aurora C) | IC50 (Aurora C) [nM] | IC50 (MOLT-4 cancer cell line; [3]) [nM] | AurA Selectivity (Aurora A) | IC50 (Aurora A) [nM] | IC50 [1] [nM] | PLK1 Selectivity [1] | IC50 (MOLT-4 cancer cell line; [4]) [nM] | IC50 (MOLT-4 cancer cell line; [5]) [nM] | Efficacy of paclitaxel in combination ([2]; HeLa-Matu mouse xenograft model, with paclitaxel) | HeLa-Matu cervical tumor cell growth ([2]; mouse xenograft model) | IC50 (human cancer cell lines) [nM] | Tumor growth, A375 xenograft (A375) | Tumor growth, A2780 xenograft (A2780) |
| --- | --- | --- | --- | --- | --- | --- | --- | --- | --- | --- | --- | --- | --- | --- |
| CCc1n[nH]c(CC)c1NC(=O)c1ccn2c1CCc1cnc(Nc3ccc(N4CCN(C)CC4)cc3OC(F)F)nc1-2 [Example 33, N-(3,5-diethyl-1H-pyrazol-4-yl)-2-[2-(difluoromethoxy)-4-(4-methylpiperazin-1-yl)anilino]-5,6-dihydropyrimido[4,5-e]indolizine-7-carboxamide] | >500 | ≥ 100 | < 50 | >500 | ≥ 100 | ≥ 250 | >500 |  |  |  |  |  |  |  |
| COCCOCCOCCn1nc(C)c(NC(=O)c2ccn3c2CCc2cnc(Nc4ccc(N5CCN(C)CC5)cc4OC)nc2-3)c1C [Example 138, N-[1-[2-[2-(2-methoxyethoxy)ethoxy]ethyl]-3,5-dimethyl-pyrrazol-4-yl]-2-[2-methoxy-4-(4-methylpiperazin-1-yl)anilino]-5,6-dihydropyrimido[4,5-e]indolizine-7-carboxamide] | >500 | ≥ 100 | < 50 | >500 | ≥ 100 | ≥ 250 | >500 |  |  |  |  |  |  |  |
| CCc1nn(CCOCCOC)c(CC)c1NC(=O)c1ccn2c1CCc1cnc(Nc3ccc(N4CCN(C)CC4)cc3OC)nc1-2 [Example 141, N-[3,5-diethyl-1-[2-(2-methoxyethoxy)ethyl]pyrazol-4-yl]-2-[2-methoxy-4-(4-methylpiperazin-1-yl)anilino]-5,6-dihydropyrimido[4,5-e]indolizine-7-carboxamide] | >500 | ≥ 100 | < 50 | >200 | ≥ 100 | ≥ 250 | >500 |  |  |  |  |  |  |  |
| CCOCCOCCn1nc(C)c(NC(=O)c2ccn3c2CCc2cnc(Nc4ccc(N5CCN(C)CC5)cc4OC)nc2-3)c1C [Example 148, N-[1-[2-(2-ethoxyethoxy)ethyl]-3,5-dimethyl-pyrazol-4-yl]-2-[2-methoxy-4-(4-methylpiperazin-1-yl)anilino]-5,6-dihydropyrimido[4,5-e]indolizine-7-carboxamide] |  | ≥ 100 |  |  | ≥ 100 | ≥ 250 |  | < 50 |  |  |  |  |  |  |
| COCCOCCn1nc(C)c(NC(=O)c2ccn3c2CCc2cnc(Nc4ccc(N5CCN(C)CC5)cc4OC)nc2-3)c1C [Example 149, N-[1-[2-(2-methoxyethoxy)ethyl]-3,5-dimethyl-pyrazol-4-yl]-2-[2-methoxy-4-(4-methylpiperazin-1-yl)anilino]-b,6-dihydropyrimido[4,5-e]indolizine-7-carboxamide] | >500 | ≥ 100 |  | >200 | ≥ 100 | ≥ 250 | >500 |  | < 50 |  |  |  |  |  |
| CCOCCOCCn1nc(CC)c(NC(=O)c2ccn3c2CCc2cnc(Nc4ccc(N5CCN(C)CC5)cc4OC)nc2-3)c1CC [Example 150, N-[1-[2-(2-ethoxyethoxy)ethyl]-3,5-diethyl-pyrazol-4-yl]-2-[2-methoxy-4-(4-methylpiperazin-1-yl)anilino]-5,6-dihydropyrimido[4,5-e]indolizine-7-carboxamide] | >500 | ≥ 100 |  | >200 | ≥ 100 | ≥ 250 | >500 |  | < 50 |  |  |  |  |  |
| CCOCCOCCn1nc(CC)c(NC(=O)c2ccn3c2CCc2cnc(Nc4ccc(N5CCNCC5)cc4OC)nc2-3)c1CC [Example 151, N-[1-[2-(2-ethoxyethoxy)ethyl]-3,5-diethyl-pyrazol-4-yl]-2-(2-methoxy-4-piperazin-1-yl-anilino)-5,6-dihydropyrimido[4,5-e]indolizine-7-carboxamide] | >500 | ≥ 100 |  | >100 | ≥ 100 | ≥ 250 | >500 |  | < 50 |  |  |  |  |  |
| COCCn1nc(C)c(NC(=O)c2ccn3c2CCc2cnc(Nc4ccc(N5CCN(C(=O)C6CN(C)C6)CC5)cc4OC)nc2-3)c1C [Example 155, N-[1-(2-methoxyethyl)-3,5-dimethyl-pyrazol-4-yl]-2-[2-methoxy-4-[4-(1-methylazetidine-3-carbonyl)piperazin-1-yl]anilino]-5,6-dihydropyrimido[4,5-e]indolizine-7-carboxamide] | >500 | ≥ 100 |  | >200 | ≥ 100 | ≥ 250 | >500 |  | < 50 |  |  |  |  |  |
| COCCOCCOCCn1nc(C)c(NC(=O)c2ccn3c2CCc2cnc(Nc4ccc(N5CCNCC5)cc4OC)nc2-3)c1C [Example 156, N-[1-[2-[2-(2-methoxyethoxy)ethoxy]ethyl]-3,5-dimethyl-pyrazol-4-yl]-2-(2-methoxy-4-piperazin-1-yl-anilino)-5,6-dihydropyrimido[4,5-e]indolizine-7-carboxamide] | >500 | ≥ 100 |  | >200 | ≥ 100 | ≥ 250 | >500 |  | < 50 |  |  |  |  |  |
| CCNCC(=O)N1CCN(c2ccc(Nc3ncc4c(n3)-n3ccc(C(=O)Nc5c(C)nn(CCOCCOCCOC)c5C)c3CC4)c(OC)c2)CC1 [Example 157, 2-[4-[4-[2-(Ethylamino)acetyl]piperazin-1-yl]-2-methoxy-anilino]-N-[1-[2-[2-(2-methoxyethoxy)ethoxy]ethyl]-3,5-dimethyl-pyrazol-4-yl]-5,6-dihydropyrimido[4,5-e]indolizine-7-carboxamide] | >500 | ≥ 100 |  | >200 | ≥ 100 | ≥ 250 | >500 |  | < 50 |  |  |  |  |  |
| CCNCC(=O)N1CCN(c2ccc(Nc3ncc4c(n3)-n3ccc(C(=O)Nc5c(CC)nn(CCOCCOC)c5CC)c3CC4)c(OC)c2)CC1 [Example 158, N-[3,5-diethyl-1-[2-(2-methoxyethoxy)ethyl]pyrazol-4-yl]-2-[4-[4-[2-(ethylamino)acetyl]piperazin-1-yl]-2-methoxy-anilino]-5,6-dihydropyrimido[4,5-e]indolizine-7-carboxamide] | >500 | ≥ 100 |  | >200 | ≥ 100 | ≥ 250 | >500 |  | < 50 |  |  |  |  |  |
| CCc1nn(CCOCCOC)c(CC)c1NC(=O)c1ccn2c1CCc1cnc(Nc3ccc(N4CCN(C(=O)COC)CC4)cc3OC)nc1-2 [Example 159, N-[3,5-diethyl-1-[2-(2-methoxyethoxy)ethyl]pyrazol-4-yl]-2-[2-methoxy-4-[4-(2-methoxyacetyl)piperazin-1-yl]anilino]-5,6-dihydropyrimido[4,5-e]indolizine-7-carboxamide] | >200 | ≥ 100 |  | >200 | ≥ 100 | ≥ 250 | >500 |  | < 50 |  |  |  |  |  |
| COCCOCCOCCn1nc(C)c(NC(=O)c2ccn3c2CCc2cnc(Nc4ccc(-c5c(C)nn(C)c5C)cc4OC)nc2-3)c1C [Example 160, N-[1-[2-[2-(2-methoxyethoxy)ethoxy]ethyl]-3,5-dimethyl-pyrazol-4-yl]-2-[2-methoxy-4-(1,3,5-trimethylpyrazol-4-yl)anilino]-5,6-dihydropyrimido[4,5-e]indolizine-7-carboxamide] |  | ≥ 100 |  |  | ≥ 100 | ≥ 250 |  | < 50 |  |  |  |  |  |  |
| CC(C)CNc1nccn2c(-c3ccc(C(=O)NC4CC4)cc3)cnc12 [Mps-BAY2b] |  |  |  |  |  |  |  |  |  | increased the efficacy of paclitaxel | inhibit HeLa-Matu cervical tumor cell growth |  |  |  |
| CCc1cccc(CC)c1NC(=O)c1nn(C)c2c1CCc1cnc(Nc3ccc(C(=O)NC4CCN(C)CC4)cc3OC(F)(F)F)nc1-2 [NMS-P715] |  |  |  |  |  |  |  |  |  |  |  | ≥ 1000 | inhibited tumor growth | inhibited tumor growth |

Source: patent publication USRE50082E1, “(5,6-dihydro)pyrimido[4,5-e]indolizines” (NETHERLANDS TRANSLATIONAL RESEARCH CENTER B.V., priority 2014, dated 2024)
